Molecular target: T1, human AMPK α1β1γ1 enzyme (Homo sapiens, UniProt Q13131+Q9Y478)
T1 construct: purchased Carna Biosciences, Inc
Assay: AMPK activator evaluation, Test Example 1 (mobility shift, FL-Peptide 7)
Assay type: biochemical
Conditions: human AMPK α1β1γ1, control without compound = 100%; for Emax: read-out: Emax (maximum rate of increase in activity within the measurement range)
Experimental: To a buffer solution consisting of a 50 mM HEPES-NaOH buffer solution (pH 7.0), 100 mM NaCl, 10 mM magnesium chloride, 0.1% bovine serum albumin, 0.2 mM sodium orthovanadate(V), 1 mM ethylene glycol-bis(2-aminoethyl ether)-N,N,N′,N′-tetraacetic acid (EGTA), 5 mM disodium (3-glycerophosphate and 2 mM dithiothreitol, a human AMPK α1β1γ1 enzyme (manufactured by Carna Biosciences, Inc.) was added in an amount to give a conversion rate of approximately 10% by reaction for 2 hours, and a compound dissolved in DMSO was added thereto so as to have a 1% DMSO concentration. The obtained liquid was left to stand for 10 minutes.
To the liquid, a substrate solution consisting of a 50 mM HEPES-NaOH buffer solution (pH 7.0), 100 mM NaCl, 10 mM magnesium chloride, 0.1% bovine serum albumin, 0.2 mM sodium orthovanadate(V), 1 mM ethylene glycol-bis(2-aminoethyl ether)-N,N,N′,N′ tetraacetic acid (EGTA), 5 mM disodium β-glycerophosphate, 2 mM dithiothreitol, 0.4 mM ATP and 3 μM FL-Peptide 7 (manufactured by Caliper Life Sciences, Inc.) was added in equal amount (10 μl in total). The obtained liquid was allowed to react at 25° C. for 2 hours, and 10 μl of 20 mM EDTA was then added thereto to stop the reaction.
To detect phosphorylated fluorescent substrates, the reaction liquid was applied to a measuring device, LabChip EZ Reader II manufactured by Caliper Life Science, Inc., for detecting fluorescence by using differences in mobility due to differences in charge. The setting conditions for the device were pressure, −1.5 PSI; upstream voltage, −2250 V; downstream voltage, −400 V; post sample buffer sip time, 40 seconds; final delay, 120 seconds; and peak order, Product First.

T1 sequence (Q13131 10-559 limits assumed): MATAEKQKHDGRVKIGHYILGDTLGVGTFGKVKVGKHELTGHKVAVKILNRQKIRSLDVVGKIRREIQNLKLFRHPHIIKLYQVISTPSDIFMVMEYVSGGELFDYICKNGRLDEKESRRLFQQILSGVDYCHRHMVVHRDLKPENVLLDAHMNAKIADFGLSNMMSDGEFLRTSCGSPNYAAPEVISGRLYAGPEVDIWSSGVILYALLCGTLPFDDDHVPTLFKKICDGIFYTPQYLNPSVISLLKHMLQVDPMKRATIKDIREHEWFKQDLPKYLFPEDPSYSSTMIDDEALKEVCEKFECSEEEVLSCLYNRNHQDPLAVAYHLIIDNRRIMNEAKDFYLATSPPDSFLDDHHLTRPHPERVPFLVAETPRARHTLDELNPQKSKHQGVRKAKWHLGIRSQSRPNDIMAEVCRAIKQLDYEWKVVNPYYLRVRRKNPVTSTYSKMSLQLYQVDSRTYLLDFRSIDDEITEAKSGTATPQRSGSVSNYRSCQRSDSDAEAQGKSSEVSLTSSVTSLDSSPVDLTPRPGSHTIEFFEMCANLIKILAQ
T1 sequence (Q9Y478 whole entry): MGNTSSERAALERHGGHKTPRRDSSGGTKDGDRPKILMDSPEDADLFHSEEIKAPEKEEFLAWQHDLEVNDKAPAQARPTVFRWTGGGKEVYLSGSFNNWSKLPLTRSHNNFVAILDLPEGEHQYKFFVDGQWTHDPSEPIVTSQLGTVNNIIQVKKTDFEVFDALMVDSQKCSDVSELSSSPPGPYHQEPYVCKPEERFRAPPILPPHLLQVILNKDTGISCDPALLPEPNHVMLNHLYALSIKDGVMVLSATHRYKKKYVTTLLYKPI
T1 sequence (P54619 whole entry partner): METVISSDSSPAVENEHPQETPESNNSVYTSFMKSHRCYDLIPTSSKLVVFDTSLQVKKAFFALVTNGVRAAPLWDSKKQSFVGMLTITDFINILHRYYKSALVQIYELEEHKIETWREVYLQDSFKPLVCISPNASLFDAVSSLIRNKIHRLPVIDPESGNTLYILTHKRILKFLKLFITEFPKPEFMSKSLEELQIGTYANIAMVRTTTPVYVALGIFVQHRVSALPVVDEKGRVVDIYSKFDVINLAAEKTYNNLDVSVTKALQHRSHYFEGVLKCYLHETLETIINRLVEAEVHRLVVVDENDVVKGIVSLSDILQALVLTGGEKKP

SMILES | EC150 (compound concentration showing 150% relative to the control) [nM] | Emax [%]
COc1ccc(-c2ccc(-c3nc4nc(Oc5ccc(C)c(C(=O)O)c5)[nH]c4cc3Cl)cc2)cc1 [Compound C-29] | 8.3 | 349
CC(=O)NC(C)(C)c1ccc(Oc2nc3nc(-c4ccc(N5CCOCC5)cc4)c(Cl)cc3[nH]2)cc1 [Compound C-119] | 130 | 237
CC(C)(C(=O)NCCO)c1ccc(Oc2nc3nc(-c4ccc(N5CCOCC5)cc4)c(Cl)cc3[nH]2)cn1 [Compound D-55] | 2700 | 177
CC(C)(C)C(=O)NC(C)(C)c1ccc(Oc2nc3nc(-c4ccc(N5CCOCC5)cc4)c(Cl)cc3[nH]2)cc1 [Compound D-65] | 42 | 252
Cc1ccc(Oc2nc3nc(-c4ccc(N5CCOCC5)cc4)ncc3[nH]2)cc1C(=O)O [Compound B-7] | 5100 | 246
O=C(O)c1cc(Oc2nc3nc(-c4ccc(N5CCOCC5)cc4)c(Cl)cc3[nH]2)ccc1Cl [Compound C-32] | 68 | 253
CC(C)(NC(=O)CO)c1ccc(Oc2nc3nc(-c4ccc(N5CCOCC5)cc4)c(Cl)cc3[nH]2)cc1 [Compound D-25] | 31 | 225
Cc1ccc(Oc2nc3cc(-c4ccc(N5CCOCC5)cc4)c(C)nc3[nH]2)cc1C(=O)O [Compound B-81] | 25 | 283
CC(C)(CO)c1ccc(Oc2nc3nc(-c4ccc(N5CCOCC5)cc4)c(Cl)cc3[nH]2)cn1 [Compound D-9] | 380 | 186
CC(C)(C(N)=O)c1ccc(Oc2nc3nc(-c4ccc(N5CCOCC5)cc4)c(Cl)cc3[nH]2)cc1 [Compound C-98] | 1700 | 165
Cc1ccc(Oc2nc3nc(-c4ccc(N5CCOCC5)nc4)c(Cl)cc3[nH]2)cc1C(=O)O [Compound B-63] | 100 | 321
CNCC(C)(C)c1ccc(Oc2nc3nc(-c4ccc(N5CCOCC5)cc4)c(Cl)cc3[nH]2)cc1 [Compound D-41] | 8300 | 159
CCc1ccc(Oc2nc3nc(-c4ccc(N5CCOCC5)cc4)c(Cl)cc3[nH]2)cc1C(=O)O [Compound C-70] | 4.2 | 335
CC(=O)NC(C)(C)c1ccc(Oc2nc3nc(-c4ccc(C5=CCN(C)CC5)cc4)c(Cl)cc3[nH]2)cc1 [Compound D-108] | 3.3 | 301
CONC(=O)C(C)(C)c1ccc(Oc2nc3nc(-c4ccc(N5CCOCC5)cc4)c(Cl)cc3[nH]2)cn1 [Compound D-102] | 4300 | 172
COC(=O)NC(C)(C)c1ccc(Oc2nc3nc(-c4ccc(N5CCOCC5)cc4)c(Cl)cc3[nH]2)cn1 [Compound D-56] | 68 | 211
CC(=O)NCCCOc1ccc(-c2nc3nc(Oc4ccc(C(C)(C)NC(C)=O)cc4)[nH]c3cc2Cl)cc1 [Compound D-109] | 18 | 270
CC(C)(CO)c1ccc(Oc2nc3nc(-c4ccc(C5(CO)CC5)cc4)c(Cl)cc3[nH]2)cn1 [Compound D-72] | 220 | 192
CC(=O)NC(C)(C)c1ccc(Oc2nc3nc(-c4ccc(C5(CO)CCC5)cc4)c(Cl)cc3[nH]2)cc1 [Compound D-58] | 66 | 224
O=C(O)CCc1ccc(Oc2nc3nc(-c4ccc(N5CCOCC5)cc4)c(Cl)cc3[nH]2)cc1 [Compound B-136] | 27 | 333

SMILES | EC150 (compound concentration showing 150% relative to the control) [nM] | Emax [%]
Cc1ccc(Oc2nc3nc(-c4ccc(N5CCOCC5)cc4)c(C(F)(F)F)cc3[nH]2)cc1C(=O)O [Compound C-96] | 99 | 326
CC(=O)NC(C)(C)c1ccc(Oc2nc3nc(-c4ccc(N5CCOCC5)cc4)c(Cl)cc3[nH]2)cc1F [Compound D-8] | 39 | 244
CC(C)(C(=O)O)c1ccc(Oc2nc3nc(-c4ccc(N5CCCC5)cc4)c(Cl)cc3[nH]2)cc1 [Compound C-11] | 7.4 | 356
CC(C)(C(=O)O)c1ccc(Oc2nc3nc(-c4ccc(N5CCOCC5)cc4)c(Cl)cc3[nH]2)cc1 [Compound B-107] | 250 | 249
Cc1ccc(Oc2nc3nc(-c4ccccc4)c(Cl)cc3[nH]2)cc1C(=O)O [Compound B-10] | 280 | 290
CC(=O)NC(C)(C)c1ccc(Oc2nc3nc(-c4ccc(C5=CCOCC5)cc4)c(Cl)cc3[nH]2)cn1 [Compound D-70] | 180 | 214
Cc1ccc(-c2ccc(-c3nc4nc(Oc5ccc(C)c(C(=O)O)c5)[nH]c4cc3Cl)cc2)cc1 [Compound B-32] | 70 | 301
CC(C)(C(N)=O)c1ncc(Oc2nc3nc(-c4ccc(N5CCOCC5)cc4)c(Cl)cc3[nH]2)cn1 [Compound D-54] | 110 | 252
CC(=O)NC(C)(C)c1ccc(Oc2nc3nc(-c4ccc(C5(CO)CC5)cc4)c(Cl)cc3[nH]2)cn1 [Compound D-42] | 260 | 187
CCc1ccc(Oc2nc3nc(-c4ccc(N5CCOCC5)cc4)c(Cl)cc3[nH]2)cn1 [Compound C-89] | 470 | 242
NS(=O)(=O)c1ccc(Oc2nc3nc(-c4ccc(N5CCOCC5)cc4)c(Cl)cc3[nH]2)cc1 [Compound B-133] | 360 | 234
CC(=O)NC(C)(C)c1ccc(Oc2nc3nc(-c4ccc(C5COC5)cc4)c(Cl)cc3[nH]2)cc1 [Compound D-111] | 150 | 238
CC(=O)NC(C)(C)c1ccc(Oc2nc3nc(-c4ccc(C5(C(C)O)CC5)cc4)c(Cl)cc3[nH]2)cc1 [Compound D-103] | 110 | 238
Cc1ccc(Oc2nc3nc(-c4ccc(N5CCCCC5=O)cc4)c(Cl)cc3[nH]2)cc1C(=O)O [Compound C-88] | 120 | 298
Clc1cc2[nH]c(Oc3ccccc3)nc2nc1-c1ccc(N2CCOCC2)cc1 [Compound B-104] | 190 | 267
CC(C)(C(N)=O)c1ccc(Oc2nc3nc(-c4ccc(C5(COC(N)=O)CC5)cc4)c(Cl)cc3[nH]2)cc1 [Compound D-4] | 70 | 207
Cc1ccc(Oc2nc3nc(-c4ccc(C5(CO)CC5)cc4)c(Cl)cc3[nH]2)cc1C(=O)O [Compound C-37] | 1.3 | 349
C#CC(C)Oc1nc2nc(-c3ccc(N4CCOCC4)cc3)c(Cl)cc2[nH]1 (centres unmarked) [Compound B-2] | 3.6 | 399
O=C1CCc2ccc(Oc3nc4nc(-c5ccc(N6CCOCC6)cc5)c(Cl)cc4[nH]3)cc2N1 [Compound B-141] | 61 | 319
CC(=O)NC(C)(C)c1ccc(Oc2nc3nc(-c4ccc(NCCO)cc4)c(Cl)cc3[nH]2)cc1 [Compound D-62] | 80 | 267
